US8247211B2, “Glycopeptide antibiotics” (American Cyanamid Company, priority 2001, dated 2012)
Values after ≈ are worked out from the molar mass of the structure shown.

Legend:
Assay in all cases: In vitro antibacterial evaluation: minimum inhibitory concentration (MIC), broth dilution method
Assay type in all cases: cell-based
Enterococcus sp. = conditions: 18 hours at 35° C.
In short: (§1)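 NCCLS M7-A2 broth dilution; Muller-Hinton II […]; 5×10^5 CFU/mL; 64-0.06 μg/mL. MIC = lowest concentration with no growth.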

Escherichia coli = conditions: 18 hours at 35° C.
In short: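 Test strains, among them recent clinical isolates carrying methicillin, penicillin and/or vancomycin resistance, were inoculated at 5×10^5 CFU/mL. A broth dilution series spanning 64-0.06 μg/mL in Muller-Hinton II […] (NCCLS M7-A2) defined the MIC as the lowest growth-inhibiting concentration.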

Staphylococcus sp. = tested on: Staphylococcus sp.
In short: as §1

Streptococcus sp. = conditions: 18 hours at 35° C.
In short: as §1

[1] = broth dilution, inoculum 5×10^5 CFU/mL

**Q.** Which “MIC Enterococcus avium (GC 4558)” value (Enterococcus sp.; Enterococcus avium (GC 4558)) does the source give for `N=C1NCC(C(O)C2NC(=O)C(Cc3ccc(OC4OC(CO)C(OC5OC6COC(CCc7ccccc7)OC6C(O)C5O)C(O)C4O)cc3)NC(=O)C(CC3CCCCC3)NC(=O)CNC(=O)C(CO)NC(=O)C(C(O)C3CNC(=N)N3C3OC(CO)C(O)C(O)C3O)NC2=O)N1` (stereo not drawn) [Example 198, Cyclo[3-cyclohexylalanyl-O-[4-O-[4,6-O-(3-phenylpropylidene)hexopyranosyl]hexopyranosyl]tyrosyl-3-(2-iminoimidazolidin-4-yl)seryl-3-(3-hexopyranosyl-2-iminoimidazolidin-4-yl)serylserylglycyl]] here?
**A.** The value was 1 mg/L (≈ 0.713 µM).

**Q.** What about the “MIC Enterococcus faecalis (ATCC 29212)” value (Enterococcus sp.; Enterococcus faecalis (ATCC 29212)) of the same compound?
**A.** Its value is 1 mg/L (≈ 0.713 µM).

**Q.** What about the “MIC Enterococcus faecalis (GC 2242)” value (Enterococcus sp.; Enterococcus faecalis (GC 2242)) of the same compound?
**A.** The value was 1 mg/L (≈ 0.713 µM).

**Q.** And the “MIC Enterococcus faecalis (GC 2691)” value (Enterococcus sp.; Enterococcus faecalis (GC 2691))?
**A.** The value was 1 mg/L (≈ 0.713 µM).

**Q.** What about the “MIC Enterococcus faecalis (GC 3059)” value (Enterococcus sp.; Enterococcus faecalis (GC 3059)) of the same compound?
**A.** Its value is 1 mg/L (≈ 0.713 µM).

**Q.** What about the “MIC Enterococcus faecalis (GC 4552)” value (Enterococcus sp.; Enterococcus faecalis (GC 4552)) of the same compound?
**A.** The value was 1 mg/L (≈ 0.713 µM).

**Q.** And the “MIC Enterococcus faecalis (GC 4553)” value (Enterococcus sp.; Enterococcus faecalis (GC 4553))?
**A.** The value was 1 mg/L (≈ 0.713 µM).

**Q.** What about the “MIC Enterococcus faecalis (GC 4554)” value (Enterococcus sp.; Enterococcus faecalis (GC 4554)) of the same compound?
**A.** Its value is 1 mg/L (≈ 0.713 µM).

**Q.** And the “MIC Enterococcus faecalis (GC 6189)” value (Enterococcus sp.; Enterococcus faecalis (GC 6189))?
**A.** Its value is 1 mg/L (≈ 0.713 µM).

**Q.** What about the “MIC Enterococcus faecium (GC 2243)” value (Enterococcus sp.; Enterococcus faecium (GC 2243)) of the same compound?
**A.** The value was 1 mg/L (≈ 0.713 µM).

**Q.** What about the “MIC Enterococcus faecium (GC 4556)” value (Enterococcus sp.; Enterococcus faecium (GC 4556)) of the same compound?
**A.** Its value is 1 mg/L (≈ 0.713 µM).

**Q.** And the “MIC Enterococcus faecium (GC 4557)” value (Enterococcus sp.; Enterococcus faecium (GC 4557))?
**A.** The value was 1 mg/L (≈ 0.713 µM).

**Q.** And the “MIC Enterococcus avium (GC 4558)” value (Enterococcus sp.; [1])?
**A.** Its value is 1 mg/L (≈ 0.713 µM).

**Q.** What about the “MIC Enterococcus faecalis (ATCC 29212)” value (Enterococcus sp.; [1]) of the same compound?
**A.** The value was 1 mg/L (≈ 0.713 µM).

**Q.** What about the “MIC Enterococcus faecalis (GC 2242)” value (Enterococcus sp.; [1]) of the same compound?
**A.** The value was 1 mg/L (≈ 0.713 µM).

**Q.** And the “MIC Enterococcus faecalis (GC 2691)” value (Enterococcus sp.; [1])?
**A.** The value was 1 mg/L (≈ 0.713 µM).

**Q.** And the “MIC Enterococcus faecalis (GC 3059)” value (Enterococcus sp.; [1])?
**A.** Its value is 1 mg/L (≈ 0.713 µM).

**Q.** And the “MIC Enterococcus faecalis (GC 4552)” value (Enterococcus sp.; [1])?
**A.** The value was 1 mg/L (≈ 0.713 µM).

**Q.** And the “MIC Enterococcus faecalis (GC 4553)” value (Enterococcus sp.; [1])?
**A.** The value was 1 mg/L (≈ 0.713 µM).

**Q.** What about the “MIC Enterococcus faecalis (GC 4554)” value (Enterococcus sp.; [1]) of the same compound?
**A.** Its value is 1 mg/L (≈ 0.713 µM).

**Q.** And the “MIC Enterococcus faecalis (GC 6189)” value (Enterococcus sp.; [1])?
**A.** Its value is 1 mg/L (≈ 0.713 µM).

**Q.** And the “MIC Enterococcus faecium (GC 2243)” value (Enterococcus sp.; [1])?
**A.** The value was 1 mg/L (≈ 0.713 µM).

**Q.** And the “MIC Enterococcus faecium (GC 4556)” value (Enterococcus sp.; [1])?
**A.** Its value is 1 mg/L (≈ 0.713 µM).

**Q.** And the “MIC Enterococcus faecium (GC 4557)” value (Enterococcus sp.; [1])?
**A.** The value was 1 mg/L (≈ 0.713 µM).

**Q.** And the “MIC Escherichia coli (ATCC 25922)” value (Escherichia coli; Escherichia coli (ATCC 25922))?
**A.** Its value is 32 mg/L (≈ 22.8 µM).

**Q.** What about the “MIC Escherichia coli (GC 4559)” value (Escherichia coli; Escherichia coli (GC 4559)) of the same compound?
**A.** The value was 32 mg/L (≈ 22.8 µM).

**Q.** And the “MIC Escherichia coli (GC 4560)” value (Escherichia coli; Escherichia coli (GC 4560))?
**A.** Its value is 1 mg/L (≈ 0.713 µM).

**Q.** And the “MIC Staphylococcus aureus (ATCC 29213)” value (Staphylococcus sp.; strain ATCC 29213)?
**A.** The value was 0.5 mg/L (≈ 0.356 µM).

**Q.** What about the “MIC Staphylococcus aureus (GC 1131)” value (Staphylococcus sp.; strain GC 1131) of the same compound?
**A.** The value was 1 mg/L (≈ 0.713 µM).

**Q.** And the “MIC Staphylococcus aureus (GC 3051)” value (Staphylococcus sp.; strain GC 3051)?
**A.** The value was 0.5 mg/L (≈ 0.356 µM).

**Q.** And the “MIC Staphylococcus aureus (GC 3053)” value (Staphylococcus sp.; strain GC 3053)?
**A.** Its value is 0.5 mg/L (≈ 0.356 µM).

**Q.** And the “MIC Staphylococcus aureus (GC 4541)” value (Staphylococcus sp.; strain GC 4541)?
**A.** The value was 0.5 mg/L (≈ 0.356 µM).

**Q.** And the “MIC Staphylococcus aureus (GC 4542)” value (Staphylococcus sp.; strain GC 4542)?
**A.** Its value is 0.25 mg/L (≈ 0.178 µM).

**Q.** What about the “MIC Staphylococcus aureus-SMITH (GC 4543)” value (Staphylococcus sp.; strain GC 4543) of the same compound?
**A.** The value was 0.5 mg/L (≈ 0.356 µM).

**Q.** What about the “MIC Staphylococcus aureus (GC 4544)” value (Staphylococcus sp.; strain GC 4544) of the same compound?
**A.** The value was 0.5 mg/L (≈ 0.356 µM).

**Q.** And the “MIC Staphylococcus aureus (GC 4545)” value (Staphylococcus sp.; strain GC 4545)?
**A.** The value was 0.5 mg/L (≈ 0.356 µM).

**Q.** What about the “MIC Staphylococcus haemolyticus (GC 4546)” value (Staphylococcus sp.; strain GC 4546) of the same compound?
**A.** The value was 0.5 mg/L (≈ 0.356 µM).

**Q.** What about the “MIC Coagulase Negative Staphylococcus (GC 4547)” value (Staphylococcus sp.; strain GC 4547) of the same compound?
**A.** The value was 1 mg/L (≈ 0.713 µM).

**Q.** What about the “MIC Coagulase Negative Staphylococcus (GC 4548)” value (Staphylococcus sp.; strain GC 4548) of the same compound?
**A.** The value was greater than 0.12 mg/L.

**Q.** And the “MIC Coagulase Negative Staphylococcus (GC 4549)” value (Staphylococcus sp.; strain GC 4549)?
**A.** The value was 0.5 mg/L (≈ 0.356 µM).

**Q.** And the “MIC Coagulase Negative Staphylococcus (GC 4551)” value (Staphylococcus sp.; strain GC 4551)?
**A.** Its value is 0.5 mg/L (≈ 0.356 µM).

**Q.** What about the “MIC Streptococcus agalactiae (GC 4564)” value (Streptococcus sp.; Streptococcus agalactiae (GC 4564)) of the same compound?
**A.** Its value is less than 0.12 mg/L.

**Q.** And the “MIC Streptococcus pneumoniae (ATCC 6301)” value (Streptococcus sp.; Streptococcus pneumoniae (ATCC 6301))?
**A.** Its value is less than 0.12 mg/L.

**Q.** And the “MIC Streptococcus pneumoniae (GC 1894)” value (Streptococcus sp.; Streptococcus pneumoniae (GC 1894))?
**A.** The value was less than 0.12 mg/L.

**Q.** And the “MIC Streptococcus pneumoniae (GC 4565)” value (Streptococcus sp.; Streptococcus pneumoniae (GC 4565))?
**A.** The value was less than 0.12 mg/L.

**Q.** What about the “MIC Streptococcus pyogenes (GC 4563)” value (Streptococcus sp.; Streptococcus pyogenes (GC 4563)) of the same compound?
**A.** The value was less than 0.12 mg/L.

**Q.** What about the “MIC Streptococcus agalactiae (GC 4564)” value (Streptococcus sp.; [1]) of the same compound?
**A.** The value was less than 0.12 mg/L.

**Q.** And the “MIC Streptococcus pneumoniae (ATCC 6301)” value (Streptococcus sp.; [1])?
**A.** The value was less than 0.12 mg/L.

**Q.** And the “MIC Streptococcus pneumoniae (GC 1894)” value (Streptococcus sp.; [1])?
**A.** Its value is less than 0.12 mg/L.

**Q.** What about the “MIC Streptococcus pneumoniae (GC 4565)” value (Streptococcus sp.; [1]) of the same compound?
**A.** The value was less than 0.12 mg/L.

**Q.** And the “MIC Streptococcus pyogenes (GC 4563)” value (Streptococcus sp.; [1])?
**A.** The value was less than 0.12 mg/L.
